Columns and labels:
[1] = system: barnyardgrass; experiment: Test A preemergence; assay type: in vivo, Echinochloa crus-galli; conditions: preemergence; for Barnyardgrass plant response rating (0 to 100 scale, 0 is no effect, 100 is complete control): visual injury approx. 10 days after treatment
Summary of the method: (§1)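 Growth medium: loam soil blended with sand. Preemergence treatment used a directed soil spray right after planting; postemergence treatment targeted seedlings at one to two leaves (2–10 cm height). Response was judged by eye relative to untreated plants about 10 days later on a 0–100 control scale.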

[2] = system: kochia; experiment: Test A preemergence; assay type: in vivo, Kochia scoparia; conditions: for Kochia plant response rating (0 to 100 scale): visual injury approx. 10 days after treatment
Excerpt: (§2) Seeds of plant species selected from barnyardgrass (Echinochloa crus-galli), kochia (Kochia scoparia), common ragweed (Ambrosia elation), Italian ryegrass (Lolium multiflorum), crabgrass, large (large crabgrass, Digitaria sanguinalis), foxtail, giant (giant foxtail, Setaria faberii), morningglory (Ipomoea spp.), pigweed (redroot pigweed, Amaranthus retroflexus), velvetleaf (Abutilon theophrasti), wheat (Triticum aestivum), and corn (Zea mays) were planted into a blend of loam soil and sand and treated preemergence with a directed soil spray using test chemicals formulated in a non-phytotoxic solvent mixture which included a surfactant.
(§3) At the same time, plants selected from these crop and weed species and also blackgrass (Alopecurus myosuroides), and galium (catchweed bedstraw, Galium aparine) were planted in pots containing the same blend of loam soil and sand and treated with postemergence applications of test chemicals formulated in the same manner. Plants ranged in height from 2 to 10 cm and were in the one- to two-leaf stage for the postemergence treatment. Treated plants and untreated controls were maintained in a greenhouse for approximately 10 days, after which time all treated plants were compared to untreated controls and visually evaluated for injury. Plant response ratings, summarized in Table A, are based on a 0 to 100 scale where 0 is no effect and 100 is complete control. A dash (-) response means no test result.

[3] = system: common ragweed; experiment: Test A preemergence; assay type: in vivo, Ambrosia elation; conditions: for Common Ragweed plant response rating (0 to 100 scale): visual injury approx. 10 days after treatment
Summary of the method: as §1

[4] = system: Italian ryegrass; experiment: Test A preemergence; assay type: in vivo, Lolium multiflorum; conditions: for Italian Ryegrass plant response rating (0 to 100 scale): visual injury approx. 10 days after treatment
Excerpt: as §2, §3

[5] = system: foxtail, giant; experiment: Test A preemergence; assay type: in vivo, Setaria faberii; conditions: preemergence; for Foxtail, Giant plant response rating (0 to 100 scale): visual injury approx. 10 days after treatment
Summary of the method: as §1

[6] = system: pigweed; experiment: Test A preemergence; assay type: in vivo, Amaranthus retroflexus; conditions: preemergence; for Pigweed plant response rating (0 to 100 scale): visual injury approx. 10 days after treatment
Summary of the method: as §1

[7] = system: barnyardgrass; experiment: Test A postemergence; assay type: in vivo, Echinochloa crus-galli
Summary of the method: as §1

[8] = system: kochia; experiment: Test A postemergence; assay type: in vivo, Kochia scoparia
Summary of the method: as §1

[9] = system: common ragweed; experiment: Test A postemergence; assay type: in vivo, Ambrosia elation
Summary of the method: as §1

[10] = system: Italian ryegrass; experiment: Test A postemergence; assay type: in vivo, Lolium multiflorum
Excerpt: as §2, §3

[11] = system: foxtail, giant; experiment: Test A postemergence; assay type: in vivo, Setaria faberii
Summary of the method: as §1

[12] = system: pigweed; experiment: Test A postemergence; assay type: in vivo, Amaranthus retroflexus
Summary of the method: as §1

[13] = system: wheat; experiment: Test A postemergence; assay type: in vivo, Triticum aestivum
Summary of the method: as §1

[14] = system: corn; experiment: Test A postemergence; assay type: in vivo, Zea mays
Summary of the method: as §1

[15] = system: blackgrass; experiment: Test A postemergence; assay type: in vivo, Alopecurus myosuroides
Summary of the method: as §1

[16] = system: galium; experiment: Test A postemergence; assay type: in vivo, Galium aparine
Summary of the method: as §1

[17] = system: rice; experiment: Test B flood; assay type: in vivo, Oryza sativa; conditions: 250 g ai/ha, visual rating on 0 to 100 scale (0 no effect, 100 complete control), 13 to 15 days
Summary of the method: (§4)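 Visual ratings on a 0–100 scale, where 0 means no effect and 100 means complete control, were assigned by comparison with controls 13 to 15 days after treatment. Compounds went into paddy water over 2-leaf plants flooded to 3 cm.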

[18] = system: sedge, umbrella; experiment: Test B flood; assay type: in vivo, Cyperus difformis; conditions: 250 g ai/ha, visual rating on 0 to 100 scale (0 no effect, 100 complete control), 13 to 15 days
Summary of the method: as §4

[19] = system: ducksalad; experiment: Test B flood; assay type: in vivo, Heteranthera limosa; conditions: 250 g ai/ha, visual rating on 0 to 100 scale (0 no effect, 100 complete control), 13 to 15 days
Summary of the method: as §4

[20] = system: barnyardgrass; experiment: Test B flood; assay type: in vivo, Echinochloa crus-galli; conditions: 250 g ai/ha, visual rating on 0 to 100 scale (0 no effect, 100 complete control), 13 to 15 days
Summary of the method: as §4

[21] = 125 g ai/ha, visual injury, 0 to 100 scale, approx. 10 days
[22] = 500 g ai/ha, visual injury after approx. 10 days, 0 to 100 scale (0 no effect, 100 complete control)
[23] = Postemergence, 500 g ai/ha, 0 to 100 scale (0 no effect, 100 complete control)
[24] = postemergence, 125 g ai/ha, about 10 days, visual rating on 0 to 100 scale (0 no effect, 100 complete control)
[25] = Postemergence, 125 g ai/ha, 0 to 100 scale, 0 no effect, 100 complete control

Structure (SMILES) | Barnyardgrass plant response rating [1, 22] | Common Ragweed plant response rating [3, 22] | Italian Ryegrass plant response rating [4, 22] | Foxtail, Giant plant response rating [5, 22] | Barnyardgrass plant response rating [7, 23] | Barnyardgrass plant response rating [7, 24] | Kochia plant response rating [8, 23] | Common Ragweed plant response rating [9, 23] | Common Ragweed plant response rating [9, 24] | Italian Ryegrass plant response rating [10, 23] | Foxtail, Giant plant response rating [11, 23] | Pigweed plant response rating [12, 23] | Wheat plant response rating [13, 23] | Corn plant response rating [14, 23] | Blackgrass plant response rating [15, 23] | Galium plant response rating [16, 23] | Plant response rating, Rice [17] | Plant response rating, Sedge, Umbrella [18] | Plant response rating, Ducksalad [19] | Plant response rating, Barnyardgrass [20] | also measured
CCc1cc(C(=O)NCC(F)(F)F)nn1Cc1cc(C(F)(F)F)no1 [Compound 123] | 100 | 50 | 30 | 100 | 60 | 0 | 90 | 40 | 10 | 30 | 90 | 100 | 10 | 60 | 50 | 80 | 10 | 60 | 60 | 20 | Barnyardgrass plant response rating [1, 21]: 0; Kochia plant response rating [2, 21]: 10; Kochia plant response rating [2, 22]: 100; Common Ragweed plant response rating [3, 21]: 10; Italian Ryegrass plant response rating [4, 21]: 0; Foxtail, Giant plant response rating [5, 21]: 20; Pigweed plant response rating [6, 21]: 70; Pigweed plant response rating [6, 22]: 100; Kochia plant response rating [8, 24]: 50; Italian Ryegrass plant response rating [10, 24]: 10; Foxtail, Giant plant response rating [11, 24]: 0; Pigweed plant response rating [12, 24]: 70; Wheat plant response rating [13, 24]: 0; Corn plant response rating [14, 24]: 20; Blackgrass plant response rating [15, 24]: 10; Galium plant response rating [16, 24]: 10
CCONC(=O)c1cc(CC)n(Cc2cc(C(F)(F)F)nn2C(C)C)n1 [Compound 208] | 10 | 10 | 10 | 30 | 10 | 0 | 50 | 20 | 0 | 0 | 10 | 80 | 0 | 10 | 10 | 50 | 0 | 0 | 0 | 0 | Barnyardgrass plant response rating (0 to 100 scale, 0 is no effect, 100 is complete control) ([1]; 125 g ai/ha): 0; Kochia plant response rating (0 to 100 scale) ([2]; 125 g ai/ha): 10; Common Ragweed plant response rating (0 to 100 scale) ([3]; 125 g ai/ha): 0; Italian Ryegrass plant response rating (0 to 100 scale) ([4]; 125 g ai/ha): 0; Foxtail, Giant plant response rating (0 to 100 scale) ([5]; 125 g ai/ha): 0; Pigweed plant response rating (0 to 100 scale) ([6]; 125 g ai/ha): 20; Kochia plant response rating [8, 25]: 20; Italian Ryegrass plant response rating [10, 25]: 0; Foxtail, Giant plant response rating [11, 24]: 0; Pigweed plant response rating [12, 25]: 40; Wheat plant response rating [13, 25]: 0; Corn plant response rating [14, 24]: 0; Blackgrass plant response rating [15, 24]: 0; Galium plant response rating [16, 25]: 20
CCc1cc(C(=O)NC2CC2)nn1Cc1cc(C(F)(F)F)nn1C(C)C [Compound 212] | 0 | 0 | 0 | 0 | 10 | – | 70 | 10 | – | 10 | 10 | 80 | 10 | 10 | 10 | 40 | 0 | 0 | 0 | 0 | Barnyardgrass plant response rating (0 to 100 scale, 0 is no effect, 100 is complete control) ([1]; 125 g ai/ha): 0; Kochia plant response rating (0 to 100 scale) ([2]; 125 g ai/ha): 0; Common Ragweed plant response rating (0 to 100 scale) ([3]; 125 g ai/ha): 0; Italian Ryegrass plant response rating (0 to 100 scale) ([4]; 125 g ai/ha): 0; Foxtail, Giant plant response rating (0 to 100 scale) ([5]; 125 g ai/ha): 0; Pigweed plant response rating (0 to 100 scale) ([6]; 125 g ai/ha): 20; Barnyardgrass plant response rating [7, 25]: 0; Kochia plant response rating [8, 25]: 10; Common Ragweed plant response rating [9, 25]: 0; Italian Ryegrass plant response rating [10, 25]: 0; Foxtail, Giant plant response rating [11, 25]: 0; Pigweed plant response rating [12, 25]: 40; Wheat plant response rating [13, 25]: 0; Corn plant response rating [14, 25]: 0; Blackgrass plant response rating [15, 25]: 0; Galium plant response rating [16, 25]: 20
